Measurements published in patent publication US20150175530A1, “ANTIBACTERIAL AGENTS” (priority 2012, published 2015).
Values after ≈ are worked out from the molar mass of the structure shown. Read-outs that look alike come from different tables or passages of the source.

Key:
[1] = test system: bacterial isolates (clinical isolates and ATCC quality control strains); assay: Minimum Inhibitory Concentrations (MICs) by broth microdilution (CLSI susceptibility testing); format: cell-based
Experimental: Bacterial isolates were cultivated from −70° C. frozen stocks by overnight passages at 35° C. in ambient air on Mueller-Hinton agar (Beckton Dickinson, Franklin Lakes, N.J.). Clinical isolates tested were obtained from various geographically diverse hospitals in the US and abroad (Focus Diagnostics, Herndon, Va. and JMI, North Liberty, Iowa). Quality control strains were from the American Type Culture Collection (ATCC; Rockville, Md.).
Minimum Inhibitory Concentrations (MICs) were determined by the broth microdilution method in accordance with the Clinical and Laboratory Standards Institute (CLSI) guidelines. In brief, organism suspensions were adjusted to a 0.5 McFarland standard to yield a final inoculum between 3×10^5 and 7×10^5 colony-forming units (CFU)/mL. Drug dilutions and inocula were made in sterile, cation adjusted Mueller-Hinton Broth (Beckton Dickinson). An inoculum volume of 100 μL was added to wells containing 100 μL of broth with 2-fold serial dilutions of drug. All inoculated microdilution trays were incubated in ambient air at 35° C. for 18-24 h. Following incubation, the lowest concentration of the drug that prevented visible growth (OD600 nm<0.05) was recorded as the MIC. Performance of the assay was monitored by the use of laboratory quality-control strains and levofloxacin, a compound with a defined MIC spectrum, in accordance with CLSI guidelines.

[2] = test system: 3 P. aeruginosa strains (APAE001, APAE002, APAE006); assay: Protein binding: fold change in MIC in the presence of 2% HSA and 0.05% AGP, Geomean of 3 strains; format: cell-based, Pseudomonas aeruginosa; conditions: MIC in the presence of 2% HSA and 0.05% AGP divided by MIC in the absence; Geomean of 3 P. aeruginosa strains (APAE001, APAE002, APAE006)
Experimental: The effect of human serum albumin (HSA) and α-1-acid glycoprotein (AGP) from human plasma, which are known to nonspecifically bind to certain antibiotics and thereby reduce their activity (Banéres-Roquet et al. 2009 “Use of a Surface Plasmon Resonance Method to Investigate Antibiotic and Plasma Protein Interactions” Antimicrob. Agents and Chemother. 53(4):1528-1531), was assessed against 3 P. aeruginosa strains (APAE001, APAE002, APAE006). APAE001 is Pseudomonas aeruginosa ATCC27853; APAE002 is a wildtype lab strain of Pseudomonas aeruginosa known as PAM1020 or PA01. APAE006 is a strain of […]/PA01 with efflux deletions: delta mexAB-oprM::CM delta CD-oprJ::Gm delta mexEF-oprN::omega Hg. Lomovskaya, 0 et al. 1999. Use of a Genetic Approach To Evaluate the Consequences of Inhibition of Efflux Pumps in P aeruginosa. Antimicrob. Agents Chemother. 43: 1340-1346.
The standard procedure described in Susceptibility Testing was utilized with one adjustment, specifically 2% HSA and 0.05% AGP were added to the cation adjusted Mueller-Hinton Broth. The MIC for each strain of interest was then assessed in the presence and absence of HSA/AGP. Following MIC determination, the fold change in MIC was determined for each individual strain by dividing the MIC in the presence of HSA/AGP by the MIC in the absence of HSA/AGP. The protein binding Geomean was then calculated using these 3 values.

[3] = APAE1096 is a clinical isolate, broth microdilution, read-out: Minimum Inhibitory Concentrations (MICs) APAE1096
[4] = Pseudomonas aeruginosa, APAE002 is a wildtype lab strain of Pseudomonas aeruginosa known as PAM1020 or PA01, broth microdilution, read-out: Minimum Inhibitory Concentrations (MICs) APAE002
[5] = Pseudomonas aeruginosa, ATCC27853, APAE001 is Pseudomonas aeruginosa ATCC27853, broth microdilution, read-out: Minimum Inhibitory Concentrations (MICs) APAE001
[6] = APAE1096 is a clinical isolate, broth microdilution
[7] = Pseudomonas aeruginosa, ATCC27853, read-out: Minimum Inhibitory Concentrations (MICs) APAE001
[8] = Pseudomonas aeruginosa, read-out: Minimum Inhibitory Concentrations (MICs) APAE002
[9] = read-out: Minimum Inhibitory Concentrations (MICs) APAE1096

SMILES | MIC [1, 3] [µg/mL] | MIC [1, 4] [µg/mL] | MIC [1, 5] [µg/mL] | Protein Binding PB (Geomean of fold change in MIC) [2] | Minimum Inhibitory Concentrations (MICs) APAE001 ([1]; APAE001 is Pseudomonas aeruginosa ATCC27853, broth microdilution) | Minimum Inhibitory Concentrations (MICs) APAE002 ([1]; APAE002 is a wildtype lab strain of Pseudomonas aeruginosa known as PAM1020 or PA01, broth microdilution) | Minimum Inhibitory Concentrations (MICs) APAE1096 [1, 6] | MIC [1, 7] [µg/mL] | MIC [1, 8] [µg/mL] | MIC [1, 9] [µg/mL]
CC(C)(N)[C@H](NC(=O)c1ccc(C#CC#CC(O)C2CC2CO)cc1)C(=O)NO (stereo partly drawn) [Compound 26, N—((S)-3-amino-1-(hydroxyamino)-3-methyl-1-oxobutan-2-yl)-4-(5-hydroxy-5-(2-(hydroxymethyl)cyclopropyl)penta-1,3-diynyl)benzamide] | 1 to 8 (≈ 2.5 to 20 µM) | < 1 | < 1 | 6.4 | – | – | – | – | – | –
C[C@H](O)C#CC#Cc1ccc(C(=O)N[C@H](C(=O)NO)[C@@H](C)O)cc1 [Compound 42, N-((2S,3R)-3-hydroxy-1-(hydroxyamino)-1-oxobutan-2-yl)-4-((S)-5-hydroxyhexa-1,3-diyn-1-yl)benzamide] | 8 to 16 (≈ 24.2 to 48.4 µM) | 1 to 8 (≈ 3.03 to 24.2 µM) | 1 to 8 (≈ 3.03 to 24.2 µM) | 2.6 | – | – | – | – | – | –
CC(C)(N)[C@H](NC(=O)c1ccc(C#CC#CC2CC(O)[C@@H]2CO)cc1)C(=O)NO (single isomer, unassigned) [Compound 30B] | – | – | – | 3.2 | A (A = MIC's of 1.0 μg/mL or less) | A (A = MIC's of 1.0 μg/mL or less) | B (B = MIC's of greater than 1.0 μg/mL to 8.0 μg/mL) | – | – | –
C[C@H](O)C#CC#Cc1ccc(C(=O)N[C@H](C(=O)NO)C(C)(C)O)cc1 [Compound 40, N—((S)-3-hydroxy-1-(hydroxyamino)-3-methyl-1-oxobutan-2-yl)-4-((S)-5-hydroxyhexa-1,3-diyn-1-yl)benzamide] | 1 to 8 (≈ 2.9 to 23.2 µM) | < 1 | 1 to 8 (≈ 2.9 to 23.2 µM) | 2.6 | – | – | – | – | – | –
C[C@@H](N)[C@H](NC(=O)c1ccc(C#CC#CC(O)CO)cc1)C(=O)NO (stereo partly drawn) [Compound 45, N-((2S,3R)-3-amino-1-(hydroxyamino)-1-oxobutan-2-yl)-4-(5,6-dihydroxyhexa-1,3-diyn-1-yl)benzamide] | – | – | – | 2.0 | – | – | – | 1 to 8 (≈ 2.9 to 23.2 µM) | < 1 | 1 to 8 (≈ 2.9 to 23.2 µM)
CN[C@H](C)[C@H](NC(=O)c1ccc(C#CC#CCCO)cc1)C(=O)NO [Compound 48, N-((2S,3R)-1-(hydroxyamino)-3-(methylamino)-1-oxobutan-2-yl)-4-(6-hydroxyhexa-1,3-diyn-1-yl)benzamide] | 1 to 8 (≈ 2.91 to 23.3 µM) | < 1 | < 1 | 2.0 | – | – | – | – | – | –
CC(C)(NCCO)[C@H](NC(=O)c1ccc(C#CC#CCO)cc1)C(=O)NO [Compound 6, (S)—N-(1-(hydroxyamino)-3-(2-hydroxyethylamino)-3-methyl-1-oxobutan-2-yl)-4-(5-hydroxypenta-1,3-diynyl)benzamide] | 1 to 8 (≈ 2.68 to 21.4 µM) | < 1 | < 1 | 2.6 | – | – | – | – | – | –
CC(C)(N)[C@H](NC(=O)c1ccc(C#CC#CCC(O)CO)cc1)C(=O)NO (stereo partly drawn) [Compound 21, N—((S)-3-amino-1-(hydroxyamino)-3-methyl-1-oxobutan-2-yl)-4-(6,7-dihydroxyhepta-1,3-diynyl)benzamide] | 1 to 8 (≈ 2.68 to 21.4 µM) | 1 to 8 (≈ 2.68 to 21.4 µM) | 1 to 8 (≈ 2.68 to 21.4 µM) | 1.9 | – | – | – | – | – | –
C[C@@H](O)[C@H](NC(=O)c1ccc(C#CC#CCCO)cc1)C(=O)NO [Compound 38, N-((2S,3R)-3-hydroxy-1-(hydroxyamino)-1-oxobutan-2-yl)-4-(6-hydroxyhexa-1,3-diyn-1-yl)benzamide] | 1 to 8 (≈ 3.03 to 24.2 µM) | < 1 | 1 to 8 (≈ 3.03 to 24.2 µM) | 2 | – | – | – | – | – | –
CC(C)(N)[C@H](NC(=O)c1ccc(C#CC#CC(CO)CO)cc1)C(=O)NO [Compound 18, (S)—N-(3-amino-1-(hydroxyamino)-3-methyl-1-oxobutan-2-yl)-4-(6-hydroxy-5-(hydroxymethyl)hexa-1,3-diynyl)benzamide] | 8 to 16 (≈ 21.4 to 42.8 µM) | 1 to 8 (≈ 2.68 to 21.4 µM) | 1 to 8 (≈ 2.68 to 21.4 µM) | 1.6 | – | – | – | – | – | –
C[C@@H](CO)[C@H](O)C#CC#Cc1ccc(C(=O)N[C@H](C(=O)NO)C(C)(C)N)cc1 [Compound 53, N—((S)-3-amino-1-(hydroxyamino)-3-methyl-1-oxobutan-2-yl)-4-((5S,6S)-5,7-dihydroxy-6-methylhepta-1,3-diyn-1-yl)benzamide] | 8 to 16 (≈ 20.6 to 41.3 µM) | 1 to 8 (≈ 2.58 to 20.6 µM) | 1 to 8 (≈ 2.58 to 20.6 µM) | 2.0 | – | – | – | – | – | –
COC(C#CC#Cc1ccc(C(=O)N[C@H](C(=O)NO)C(C)(C)N)cc1)CO (stereo partly drawn) [Compound 47, N—((S)-3-amino-1-(hydroxyamino)-3-methyl-1-oxobutan-2-yl)-4-(6-hydroxy-5-methoxyhexa-1,3-diyn-1-yl)benzamide] | – | – | – | 2.6 | – | – | – | < 1 | < 1 | 1 to 8 (≈ 2.68 to 21.4 µM)
CC(C)(NCc1c[nH]cn1)[C@H](NC(=O)c1ccc(C#CC#CCCO)cc1)C(=O)NO [Compound 13, (S)—N-(3-((1H-imidazol-4-yl)methylamino)-1-(hydroxyamino)-3-methyl-1-oxobutan-2-yl)-4-(6-hydroxyhexa-1,3-diynyl)benzamide] | 1 to 8 (≈ 2.36 to 18.9 µM) | 1 to 8 (≈ 2.36 to 18.9 µM) | < 1 | 1.4 | – | – | – | – | – | –
CC(C)(N)[C@H](NC(=O)c1ccc(C#CC#CC2C[C@@H](O)[C@H]2CO)cc1)C(=O)NO (single isomer, unassigned) [Compound 31A] | – | 1 to 8 (≈ 2.5 to 20 µM) | 1 to 8 (≈ 2.5 to 20 µM) | 2.5 | – | – | C (C = MIC's of greater than 8.0 μg/mL to 16.0 μg/mL) | – | – | –
CC(C#CC#Cc1ccc(C(=O)N[C@H](C(=O)NO)C(C)(C)N)cc1)C(O)CO (single isomer, unassigned) [Compound 20A] | 8 to 16 (≈ 20.6 to 41.3 µM) | 1 to 8 (≈ 2.58 to 20.6 µM) | 1 to 8 (≈ 2.58 to 20.6 µM) | 2.0 | – | – | – | – | – | –
CC(C)(N)[C@H](NC(=O)c1ccc(C#CC#CC(O)(CO)CCl)cc1)C(=O)NO (stereo partly drawn) [Compound 19, N—((S)-3-amino-1-(hydroxyamino)-3-methyl-1-oxobutan-2-yl)-4-(6-chloro-5-hydroxy-5-(hydroxymethyl)hexa-1,3-diynyl)benzamide] | 1 to 8 (≈ 2.45 to 19.6 µM) | 1 to 8 (≈ 2.45 to 19.6 µM) | < 1 | 1.0 | – | – | – | – | – | –
CC(C)(N)[C@H](NC(=O)c1ccc(C#CC#C[C@@H]2[C@@H](CO)[C@H]2CO)cc1)C(=O)NO [Compound 23A, N—((S)-3-amino-1-(hydroxyamino)-3-methyl-1-oxobutan-2-yl)-4-(((1S,2R,3S)-2,3-bis(hydroxymethyl)cyclopropyl)buta-1,3-diynyl)benzamide] | 8 to 16 (≈ 20 to 40.1 µM) | 1 to 8 (≈ 2.5 to 20 µM) | 1 to 8 (≈ 2.5 to 20 µM) | 2.3 | – | – | – | – | – | –
CN[C@H](C)[C@H](NC(=O)c1ccc(C#CC#CCO)cc1)C(=O)NO [Compound 56, N-((2S,3R)-1-(hydroxyamino)-3-(methylamino)-1-oxobutan-2-yl)-4-(5-hydroxypenta-1,3-diyn-1-yl)benzamide] | 1 to 8 (≈ 3.04 to 24.3 µM) | < 1 | < 1 | 2.5 | – | – | – | – | – | –
CNC(C)(C)[C@H](NC(=O)c1ccc(C#CC#CCCO)cc1)C(=O)NO [Compound 9, (S)—N-(1-(hydroxyamino)-3-methyl-3-(methylamino)-1-oxobutan-2-yl)-4-(6-hydroxyhexa-1,3-diynyl)benzamide] | – | – | – | 1.5 | – | – | – | < 1 | < 1 | < 1
